Source: patent US20240358668A1, “METHODS AND CO[…] AM[…] CARD[…] USING (R)-2-AMINO-3-PH[…]” (AXSOME THERAPEUTICS, INC., priority 2021, published 2024)

Tests used:
[1] = system: participants with narcolepsy or OSA; assay: 1-year OLE study: clinical laboratory assessments (total cholesterol, triglycerides, glucose), OLE baseline to week 40; assay type: in vivo, human; details: for Triglycerides category High, Week 40 / Triglycerides category Low, Week 40 / Triglycerides category Normal, Week 40 / Glucose Change - Wk 40, Mean (SD) / Glucose Change - Wk 40, Median / Glucose category High, Week 40 / Glucose category Low, Week 40 / Glucose category Normal, Week 40 / TC Change - Wk 40, Mean (SD) / TC Change - Wk 40, Median / TG Change - Wk 40, Mean (SD) / TG Change - Wk 40, Median / Total cholesterol category High, Week 40 / Total cholesterol category Low, Week 40 / Total cholesterol category Normal, Week 40: Weight loss ≥5% at Week 40
Protocol: A 1-year open-label extension (OLE) study was performed with 374 participants to examined whether clinically significant weight loss (≥5%) in this population had favorable effects on biomarkers of cardiovascular risk compared to no such weight loss. The study measured changes in weight and BP (parent study baseline to OLE week 40) and clinical laboratory assessments (OLE baseline to week 40) in participants with narcolepsy (n=124) or OSA (n=250) who received solriamfetol at doses of 75, 150, or 300 mg/d.
We evaluated changes in weight and BP (parent study baseline to OLE week 40) and clinical laboratory assessments (OLE baseline to week 40) in participants with narcolepsy (n=124) or OSA (n=250) from the OLE study.

[2] = system: participants with narcolepsy; assay: Study 14-002, 12-week randomized controlled trial: 24-hour ABPM at screening and week 8; assay type: in vivo, human; details: for effect on percentage of participants with a non-dipping BP profile: screening to week 8, any dose studied
Protocol: Solriamfetol is a dopamine and norepinephrine reuptake inhibitor indicated to improve wakefulness in adult patients with excessive daytime sleepiness associated with narcolepsy (75-150 mg/d) or obstructive sleep apnea (37.5-150 mg/d). Previous studies reported small mean increases in blood pressure (BP); however, the time course of these effects has not been evaluated. […] These analyses evaluated the effects of solriamfetol treatment on BP using 24-hour ambulatory blood pressure monitoring (ABPM) and on the percentage of narcolepsy patients with a non-dipping BP profile.
Twenty-four-hour ABPM was conducted at baseline and week 8 in a 12-week randomized controlled trial in participants with narcolepsy (n=236). Blood pressure was collected every 30 minutes.

Compound: NC(=O)OC[C@H](N)Cc1ccccc1 [Solriamfetol, (R)-2-amino-3-phenylpropyl carbamate]
- Triglycerides category High, Week 40 ([1]; 75 mg/d): 0 n (%)
- Triglycerides category Low, Week 40 ([1]; 75 mg/d): 0 n (%)
- Triglycerides category Normal, Week 40 ([1]; 75 mg/d): 1(100) n (%)
- Glucose Change - Wk 40, Mean (SD) ([1]; 150 mg/d): −0.2 (0.8) mmol/L
- Glucose Change - Wk 40, Median ([1]; 150 mg/d): -0.2 mmol/L
- Glucose category High, Week 40 ([1]; 150 mg/d): 7(31.8) n (%)
- Glucose category Low, Week 40 ([1]; 150 mg/d): 0 n (%)
- Glucose category Normal, Week 40 ([1]; 150 mg/d): 15(68.2) n (%)
- TC Change - Wk 40, Mean (SD) ([1]; 150 mg/d): 0.2 (0.5) mmol/L
- TC Change - Wk 40, Median ([1]; 150 mg/d): 0.2 mmol/L
- TG Change - Wk 40, Mean (SD) ([1]; 150 mg/d): −0.1 (0.4) mmol/L
- TG Change - Wk 40, Median ([1]; 150 mg/d): -0.2 mmol/L
- Total cholesterol category High, Week 40 ([1]; 150 mg/d): 4(18.2) n (%)
- Total cholesterol category Low, Week 40 ([1]; 150 mg/d): 0 n (%)
- Total cholesterol category Normal, Week 40 ([1]; 150 mg/d): 18(81.8) n (%)
- Triglycerides category High, Week 40 ([1]; 150 mg/d): 6(27.3) n (%)
- Triglycerides category Low, Week 40 ([1]; 150 mg/d): 0 n (%)
- Triglycerides category Normal, Week 40 ([1]; 150 mg/d): 16(72.7) n (%)
- Glucose Change - Wk 40, Mean (SD) ([1]; 300 mg/d): −0.2 (1.5) mmol/L
- Glucose Change - Wk 40, Median ([1]; 300 mg/d): -0.1 mmol/L
- Glucose category High, Week 40 ([1]; 300 mg/d): 19(26.0) n (%)
- Glucose category Low, Week 40 ([1]; 300 mg/d): 0 n (%)
- Glucose category Normal, Week 40 ([1]; 300 mg/d): 54(74.0) n (%)
- TC Change - Wk 40, Mean (SD) ([1]; 300 mg/d): 0.2 (0.6) mmol/L
- TC Change - Wk 40, Median ([1]; 300 mg/d): 0.2 mmol/L
- TG Change - Wk 40, Mean (SD) ([1]; 300 mg/d): −0.3 (1.0) mmol/L
- TG Change - Wk 40, Median ([1]; 300 mg/d): -0.2 mmol/L
- Total cholesterol category High, Week 40 ([1]; 300 mg/d): 18(24.7) n (%)
- Total cholesterol category Low, Week 40 ([1]; 300 mg/d): 0 n (%)
- Total cholesterol category Normal, Week 40 ([1]; 300 mg/d): 55(75.3) n (%)
- Triglycerides category High, Week 40 ([1]; 300 mg/d): 15(20.5) n (%)
- Triglycerides category Low, Week 40 ([1]; 300 mg/d): 0 n (%)
- Triglycerides category Normal, Week 40 ([1]; 300 mg/d): 58(79.5) n (%)
- Glucose Change - Wk 40, Mean (SD) ([1]; all doses): −0.2 (1.4) mmol/L
- Glucose Change - Wk 40, Median ([1]; all doses): -0.1 mmol/L
- Glucose category High, Week 40 ([1]; all doses): 27(28.1) n (%)
- Glucose category Low, Week 40 ([1]; all doses): 0 n (%)
- Glucose category Normal, Week 40 ([1]; all doses): 69(71.9) n (%)
- TC Change - Wk 40, Mean (SD) ([1]; all doses): 0.2 (0.6) mmol/L
- TC Change - Wk 40, Median ([1]; all doses): 0.2 mmol/L
- TG Change - Wk 40, Mean (SD) ([1]; all doses): −0.2 (0.9) mmol/L
- TG Change - Wk 40, Median ([1]; all doses): -0.2 mmol/L
- Total cholesterol category High, Week 40 ([1]; all doses): 22(22.9) n (%)
- Total cholesterol category Low, Week 40 ([1]; all doses): 0 n (%)
- Total cholesterol category Normal, Week 40 ([1]; all doses): 74(77.1) n (%)
- Triglycerides category High, Week 40 ([1]; all doses): 21(21.9) n (%)
- Triglycerides category Low, Week 40 ([1]; all doses): 0 n (%)
- Triglycerides category Normal, Week 40 ([1]; all doses): 75(78.1) n (%)
- percentage of participants with high total cholesterol ([1]; participants with weight loss, week 40 (baseline 22.3%)): 22.9%
- percentage of participants with high triglycerides ([1]; participants with weight loss, week 40 (baseline 26.6%)): 21.9%
- percentage of participants with high serum glucose ([1]; participants with weight loss, week 40 (baseline 36.6%)): 28.1%
- percentage of participants with high total cholesterol ([1]; participants without weight loss, week 40 (baseline 32.7%)): 37.2%
- percentage of participants with high triglycerides ([1]; participants without weight loss, week 40 (baseline 37.1%)): 37.2%
- percentage of participants with high serum glucose ([1]; participants without weight loss, week 40 (baseline 43.3%)): 50%
- Mean Change in DBP on ABPM from Screening to Week 8, Mean (SD) ([2]; 75 mg): 1.4 (5.13) mmHg
- Mean Change in HR on ABPM from Screening to Week 8, Mean (SD) ([2]; 75 mg): 1.0 (7.95) bpm
- Mean Change in SBP on ABPM from Screening to Week 8, Mean (SD) ([2]; 75 mg): 1.8 (6.53) mmHg
- Mean Change in DBP on ABPM from Screening to Week 8, Mean (SD) ([2]; 75 mg, listed as solriamfetol): 1.4 mmHg
- Mean Change in SBP on ABPM from Screening to Week 8, Mean (SD) ([2]; 75 mg, listed as solriamfetol): 1.8 mmHg
- Mean Change in DBP on ABPM from Screening to Week 8, Mean (SD) ([2]; 150 mg): 0.4 (4.46) mmHg
- Mean Change in HR on ABPM from Screening to Week 8, Mean (SD) ([2]; 150 mg): 0.7 (7.12) bpm
- Mean Change in SBP on ABPM from Screening to Week 8, Mean (SD) ([2]; 150 mg): −0.5 (5.51) mmHg
- Mean Change in DBP on ABPM from Screening to Week 8, Mean (SD) ([2]; 150 mg, listed as solriamfetol): 0.4 mmHg
- Mean Change in SBP on ABPM from Screening to Week 8, Mean (SD) ([2]; 150 mg, listed as solriamfetol): −0.5 mmHg
- Mean Change in DBP on ABPM from Screening to Week 8, Mean (SD) ([2]; 300 mg): 3.0 (4.97) mmHg
- Mean Change in HR on ABPM from Screening to Week 8, Mean (SD) ([2]; 300 mg): 5.3 (7.55) bpm
- Mean Change in SBP on ABPM from Screening to Week 8, Mean (SD) ([2]; 300 mg): 2.4 (5.97) mmHg
- Mean Change in DBP on ABPM from Screening to Week 8, Mean (SD) ([2]; 300 mg, listed as solriamfetol): 3.0 mmHg
- Mean Change in SBP on ABPM from Screening to Week 8, Mean (SD) ([2]; 300 mg, listed as solriamfetol): 2.4 mmHg
- percentage of non-dippers (<10% decrease in MAP during sleep) ([2]; combined solriamfetol, week 8 (baseline 48%)): 39%
- time course of effects on BP (24-hour ABPM) ([2]; highest approved dose of 150 mg/d): transient across the day
- effect on percentage of participants with a non-dipping BP profile [2]: not observed to have an increase
- effect on percentage of participants with a non-dipping BP profile ([2]; listed as solriamfetol): did not increase
